The source of these data is the supplement of paper PMC12076712.

Common to all, as to assay: pIC50, kinobeads binding competition
One assay has as its target T1, ADCK1 (UniProt Q86TW2).
T1 sequence (whole entry): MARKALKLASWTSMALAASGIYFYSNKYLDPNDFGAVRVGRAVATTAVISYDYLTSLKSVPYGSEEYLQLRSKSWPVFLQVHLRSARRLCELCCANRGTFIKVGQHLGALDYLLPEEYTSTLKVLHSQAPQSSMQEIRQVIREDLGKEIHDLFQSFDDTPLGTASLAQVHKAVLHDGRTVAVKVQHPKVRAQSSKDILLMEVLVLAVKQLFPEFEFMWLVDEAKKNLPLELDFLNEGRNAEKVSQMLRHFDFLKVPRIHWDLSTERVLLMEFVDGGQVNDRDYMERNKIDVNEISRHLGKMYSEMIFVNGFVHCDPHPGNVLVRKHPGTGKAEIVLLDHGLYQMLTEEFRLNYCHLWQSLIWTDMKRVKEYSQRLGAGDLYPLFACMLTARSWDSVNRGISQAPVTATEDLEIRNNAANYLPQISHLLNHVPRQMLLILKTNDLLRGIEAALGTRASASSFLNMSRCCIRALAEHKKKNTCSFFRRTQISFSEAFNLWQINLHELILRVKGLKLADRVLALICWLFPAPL
Particulars: cell material: Lysate mix. In short, it runs like this: (§1)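 Nine compound concentrations were tested, starting at 30 μM in 1:4 steps on live Jurkat cells (60 min, 37 °C, then lysis) or in 1:5 steps on Jurkat lysate or a 1:1:1:1 HEK293/K-562/HepG2/placenta lysate mix (60 min, 4 °C). Kinobeads-bound proteins were digested and quantified with TMT10 LC-MS/MS. pIC50 values are from logistic dose-response fits in the R drc package of fold changes relative to vehicle, from biological duplicates.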

The target of another assay is CLK2 (UniProt P49760). Summed up:
as §1

Another assay addresses T2, UniProt Q96D53.
T2 sequence (whole entry): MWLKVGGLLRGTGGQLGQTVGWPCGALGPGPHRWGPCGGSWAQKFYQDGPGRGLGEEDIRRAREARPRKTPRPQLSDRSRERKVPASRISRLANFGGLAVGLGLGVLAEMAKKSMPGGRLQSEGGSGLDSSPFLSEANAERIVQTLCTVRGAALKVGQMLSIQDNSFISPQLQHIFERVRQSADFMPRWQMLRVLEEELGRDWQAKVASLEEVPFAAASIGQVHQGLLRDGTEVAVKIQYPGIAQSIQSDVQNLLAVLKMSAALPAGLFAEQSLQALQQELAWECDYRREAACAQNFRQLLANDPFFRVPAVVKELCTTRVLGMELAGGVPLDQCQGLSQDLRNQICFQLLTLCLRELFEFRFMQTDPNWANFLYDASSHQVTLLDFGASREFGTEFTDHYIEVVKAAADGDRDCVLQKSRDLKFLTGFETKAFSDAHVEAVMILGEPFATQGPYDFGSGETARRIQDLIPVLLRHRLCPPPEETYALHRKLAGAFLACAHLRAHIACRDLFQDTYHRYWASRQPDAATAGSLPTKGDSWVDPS
In short, it runs like this: as §1

A further assay has as its target AXL (UniProt P30530). Particulars: cell material: Lysate mix. In short, it runs like this:
as §1

For the next assay, the target named is T3, UniProt Q99683.
T3 sequence (whole entry): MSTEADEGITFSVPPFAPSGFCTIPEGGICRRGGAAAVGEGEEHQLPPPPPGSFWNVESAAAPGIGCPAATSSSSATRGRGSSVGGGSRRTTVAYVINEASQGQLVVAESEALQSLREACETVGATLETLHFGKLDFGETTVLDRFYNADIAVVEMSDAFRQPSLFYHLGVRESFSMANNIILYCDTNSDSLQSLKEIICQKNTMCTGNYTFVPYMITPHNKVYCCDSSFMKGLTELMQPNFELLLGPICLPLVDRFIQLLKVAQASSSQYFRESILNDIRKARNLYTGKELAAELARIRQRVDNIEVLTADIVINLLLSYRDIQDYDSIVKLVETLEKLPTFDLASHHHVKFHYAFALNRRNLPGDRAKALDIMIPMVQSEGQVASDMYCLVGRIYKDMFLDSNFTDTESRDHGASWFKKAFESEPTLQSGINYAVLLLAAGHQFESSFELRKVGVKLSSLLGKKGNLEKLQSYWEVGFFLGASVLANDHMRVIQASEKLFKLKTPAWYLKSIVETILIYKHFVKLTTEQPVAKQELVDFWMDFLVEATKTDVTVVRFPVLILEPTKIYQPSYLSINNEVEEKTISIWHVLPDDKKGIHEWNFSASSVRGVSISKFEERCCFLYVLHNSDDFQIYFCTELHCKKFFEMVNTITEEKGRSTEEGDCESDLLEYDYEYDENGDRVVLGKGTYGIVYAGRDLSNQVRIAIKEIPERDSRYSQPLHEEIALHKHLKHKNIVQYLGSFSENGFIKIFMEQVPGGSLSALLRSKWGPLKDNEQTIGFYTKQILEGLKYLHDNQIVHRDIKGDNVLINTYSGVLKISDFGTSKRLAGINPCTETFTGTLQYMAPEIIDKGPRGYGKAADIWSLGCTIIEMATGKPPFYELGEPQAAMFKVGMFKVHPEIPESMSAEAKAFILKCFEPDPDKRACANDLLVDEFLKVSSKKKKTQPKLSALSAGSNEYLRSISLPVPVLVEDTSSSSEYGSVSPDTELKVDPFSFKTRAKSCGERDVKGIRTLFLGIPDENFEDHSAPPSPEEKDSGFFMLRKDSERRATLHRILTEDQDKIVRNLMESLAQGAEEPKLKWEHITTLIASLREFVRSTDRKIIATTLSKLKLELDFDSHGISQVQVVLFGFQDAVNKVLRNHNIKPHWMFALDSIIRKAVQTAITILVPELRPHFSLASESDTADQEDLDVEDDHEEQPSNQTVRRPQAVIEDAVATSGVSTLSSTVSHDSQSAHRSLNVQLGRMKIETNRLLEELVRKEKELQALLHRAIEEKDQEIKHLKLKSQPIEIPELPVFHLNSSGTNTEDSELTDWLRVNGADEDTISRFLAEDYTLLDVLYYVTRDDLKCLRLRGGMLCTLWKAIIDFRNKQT
Summed up:
as §1

The next assay deals with LIMK2 (UniProt P53671). In short, it runs like this: as §1
Sequence of LIMK2 (P53671 whole entry, looked up): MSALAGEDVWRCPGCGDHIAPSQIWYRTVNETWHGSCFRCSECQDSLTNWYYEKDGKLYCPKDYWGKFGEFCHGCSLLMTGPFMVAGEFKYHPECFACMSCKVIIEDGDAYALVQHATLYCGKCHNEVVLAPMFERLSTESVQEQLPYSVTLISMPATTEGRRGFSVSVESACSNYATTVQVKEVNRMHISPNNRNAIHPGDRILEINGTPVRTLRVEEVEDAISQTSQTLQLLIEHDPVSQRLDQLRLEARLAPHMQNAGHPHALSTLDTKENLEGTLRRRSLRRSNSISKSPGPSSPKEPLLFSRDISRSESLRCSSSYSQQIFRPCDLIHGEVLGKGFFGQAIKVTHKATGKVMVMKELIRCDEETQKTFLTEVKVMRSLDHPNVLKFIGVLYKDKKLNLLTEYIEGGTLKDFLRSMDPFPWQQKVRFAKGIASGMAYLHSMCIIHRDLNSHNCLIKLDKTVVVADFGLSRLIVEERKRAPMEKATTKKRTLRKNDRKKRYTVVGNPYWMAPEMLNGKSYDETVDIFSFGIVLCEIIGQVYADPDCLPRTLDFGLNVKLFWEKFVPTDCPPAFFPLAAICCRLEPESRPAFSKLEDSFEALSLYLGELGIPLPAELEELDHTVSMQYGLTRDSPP

Sequence of CLK2 (P49760 whole entry, looked up): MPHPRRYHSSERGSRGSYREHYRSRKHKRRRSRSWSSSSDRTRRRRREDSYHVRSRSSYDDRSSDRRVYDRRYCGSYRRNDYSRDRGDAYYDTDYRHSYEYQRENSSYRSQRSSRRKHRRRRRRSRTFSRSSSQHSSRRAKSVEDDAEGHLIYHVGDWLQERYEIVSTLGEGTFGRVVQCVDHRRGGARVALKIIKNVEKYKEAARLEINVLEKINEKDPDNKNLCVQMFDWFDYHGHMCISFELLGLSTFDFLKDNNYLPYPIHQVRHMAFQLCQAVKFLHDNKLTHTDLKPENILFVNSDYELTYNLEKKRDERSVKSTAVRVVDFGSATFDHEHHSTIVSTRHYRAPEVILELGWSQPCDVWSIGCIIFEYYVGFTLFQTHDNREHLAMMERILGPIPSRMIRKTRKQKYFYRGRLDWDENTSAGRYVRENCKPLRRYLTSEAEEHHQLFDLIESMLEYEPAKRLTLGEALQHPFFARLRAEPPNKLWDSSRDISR
Sequence of AXL (P30530 whole entry): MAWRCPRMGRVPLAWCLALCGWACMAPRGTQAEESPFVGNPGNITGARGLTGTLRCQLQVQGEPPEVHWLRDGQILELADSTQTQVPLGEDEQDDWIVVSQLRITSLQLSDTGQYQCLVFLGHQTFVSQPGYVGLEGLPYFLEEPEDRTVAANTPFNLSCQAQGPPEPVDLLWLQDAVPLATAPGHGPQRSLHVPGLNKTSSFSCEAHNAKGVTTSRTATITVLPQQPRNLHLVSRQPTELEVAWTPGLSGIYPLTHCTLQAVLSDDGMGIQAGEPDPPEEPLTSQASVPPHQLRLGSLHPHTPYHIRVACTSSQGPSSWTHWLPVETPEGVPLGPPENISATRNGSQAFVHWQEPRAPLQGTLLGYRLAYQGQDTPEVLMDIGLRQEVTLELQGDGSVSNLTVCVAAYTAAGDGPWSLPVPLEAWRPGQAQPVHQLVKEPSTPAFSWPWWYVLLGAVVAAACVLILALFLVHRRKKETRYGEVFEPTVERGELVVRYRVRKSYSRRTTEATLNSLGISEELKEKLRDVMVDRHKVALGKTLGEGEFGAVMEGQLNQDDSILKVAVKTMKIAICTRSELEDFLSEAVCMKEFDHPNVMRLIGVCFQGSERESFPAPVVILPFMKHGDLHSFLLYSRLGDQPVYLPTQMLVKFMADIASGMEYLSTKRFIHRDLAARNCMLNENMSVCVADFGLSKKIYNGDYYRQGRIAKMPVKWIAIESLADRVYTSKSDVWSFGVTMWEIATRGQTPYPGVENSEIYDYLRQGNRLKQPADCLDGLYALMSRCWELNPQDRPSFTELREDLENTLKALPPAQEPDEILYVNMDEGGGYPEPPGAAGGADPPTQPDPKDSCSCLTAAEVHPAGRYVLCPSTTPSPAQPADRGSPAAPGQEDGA

On to `O=C(NCCNC(=O)c1cc(Nc2cc(C3CC3)[nH]n2)nc(N2CCN(Cc3ccc(S(=O)(=O)F)cc3)CC2)n1)OC1CC/C=C/CCC1` (stereo unspecified), for which the negative logarithm of the IC50 (pIC50) at ADCK1 is under 4.52; on CLK2 (cell material: Jurkat cells), 5.92; at CLK2 (cell material: Jurkat lysate), under 4.52; at CLK2 (cell material: Lysate mix), under 4.52; on UniProt Q96D53 (cell material: Jurkat cells), under 4.52; on UniProt Q96D53 (cell material: Lysate mix) it was under 4.52. Besides, the pIC50 at AXL is 4.72; at UniProt Q99683 (cell material: Jurkat cells), 4.75; on UniProt Q99683 (cell material: Jurkat lysate), under 4.52; at UniProt Q99683 (cell material: Lysate mix) it was under 4.52; at LIMK2 (cell material: Jurkat cells), 6.33; on LIMK2 (cell material: Jurkat lysate) it was under 4.52. The same molecule yielded a negative logarithm of the IC50 (pIC50) on LIMK2 (cell material: Lysate mix) of under 4.52.

Regarding `Cc1cc(Nc2cc(C(=O)NCCNC(=O)OC3CC/C=C/CCC3)nc(N3CCN(Cc4ccc(S(=O)(=O)F)cc4)CC3)n2)n[nH]1` (stereo unspecified), the pIC50 on ADCK1, on UniProt Q99683 (cell material: Lysate mix) and on LIMK2 (cell material: Lysate mix) was under 4.52 in each case.

In the case of `CCNC(=O)c1cc(Nc2cc(C)[nH]n2)nc(N2CCN(Cc3ccc(S(=O)(=O)F)cc3)CC2)n1`, the pIC50 at ADCK1 was under 4.52; on UniProt Q96D53 (cell material: Lysate mix), under 4.52; at AXL it was 4.74; at UniProt Q99683 (cell material: Lysate mix) it was 4.69; on LIMK2 (cell material: Lysate mix), 4.62.

With `C#CCNC(=O)c1cc(Nc2cc(C3CC3)[nH]n2)nc(N2CCN(Cc3ccc(S(=O)(=O)F)cc3)CC2)n1`, the negative logarithm of the IC50 (pIC50) at ADCK1 was under 4.52; on CLK2 (cell material: Jurkat cells), 6.11; at CLK2 (cell material: Jurkat lysate) it was 5.57; on UniProt Q96D53 (cell material: Jurkat cells) it was under 4.52; on AXL, under 4.52; on UniProt Q99683 (cell material: Jurkat cells) it was 5.39. The negative logarithm of the IC50 (pIC50) at UniProt Q99683 (cell material: Jurkat lysate) was under 4.52; at UniProt Q99683 (cell material: Lysate mix), under 4.52; on LIMK2 (cell material: Jurkat cells), 6.52; at LIMK2 (cell material: Jurkat lysate) it was 5.16; at LIMK2 (cell material: Lysate mix), 5.53.

In turn, `C#CCNC(=O)c1cc(Nc2cc(C)[nH]n2)nc(N2CCN(Cc3ccc(S(=O)(=O)F)cc3)CC2)n1` came in with a negative logarithm of the IC50 (pIC50) at ADCK1 of under 4.52.

As for `CCNC(=O)c1cc(Nc2cc(C3CC3)[nH]n2)nc(N2CCN(Cc3ccc(S(=O)(=O)F)cc3)CC2)n1`, the negative-log IC50 (pIC50) on CLK2 (cell material: Lysate mix) is 5.55; on UniProt Q99683 (cell material: Lysate mix) it was under 4.52; on LIMK2 (cell material: Lysate mix), 5.38.

The pIC50 is −log10 of the IC50, conventionally taken in molar units. A low value points to a large IC50.
